Test results as given in paper PMC10191403, “The C-terminal 32-mer fragment of hemoglobin alpha is an amyloidogenic peptide with antimicrobial properties” (Cellular and Molecular Life Sciences: CMLS, 2023).
Ends that are not written are not given here.

How the values were obtained:
HSV-2 = type: cell-based; conditions: serial dilutions of peptides added to ELVIS cells, infected 1 h later with HSV-2; lacZ enzyme activity one day post-infection; ±SD; one (inactive) to three (active) experiments in triplicates
[1] = Thioflavin T (ThT) assay of fibril formation; type: physicochemical; conditions: formation of ThT positive aggregates
[2] = test system: THP-1-derived macrophages; assay: Phagocytosis of E. coli-GFP by THP-1-derived macrophages; type: cell-based, human; conditions: E. coli-GFP pre-incubated with 1 mg/ml fibrils, 3 h on cells; CytD 2 µg/ml pre-treatment 30 min; confocal microscopy

Row | Compound | IC50 (antiviral activity, HSV-2) (HSV-2) [µg/mL] | ThT signal (+/-) [1] | uptake of E. coli-GFP by macrophages [2]
1 | SVSTVLTSKYR [HBA 132-142] | > 130 | - | 
2 | SVSTVL [HBA 132-137] | > 130 | - | 
3 | LASVSTVL [HBA 130-137] | > 130 | + | 
4 | ASVSTVL [HBA 131-137] | > 130 | + | 
5 | C=C1[C@@H](C)[C@H]2[C@H](Cc3ccccc3)NC(=O)[C@]23[C@H](OC(C)=O)/C=C/[C@@](C)(O)C(=O)[C@@H](C)C/C=C/[C@H]3[C@@H]1O [CytD, Cytochalasin D] |  |  | prevented the uptake of any bacteria
6 | AAHLPAEFTPAVHASLDKFLA [HBA(111–131)] | > 130 | - | 
7 | KFLASVST [HBA 128-135] | > 130 | - | 
